What all share (format): in vivo
Data set [1] relates to summer wheat (TRZAS; cv. Triso). Briefly: Absolute action: reduction of damage by mesosulfuron-methyl on summer wheat, greenhouse post-emergence. More on the design: key to Absolute reduction in damage (difference): percentage points of visual damage (0-100% scale vs untreated). As to the method: (§1) 2.1 Absolute Action of Selected Compounds of the Invention Using the Example of Reduction of Damage by Mesosulfuron-Methyl on Summer Wheat (TRZAS) The seeds of the crop plants to be treated are laid out in sandy loam in wood fiber or plastic pots (diameter ˜4 cm), covered with soil and grown in a greenhouse under good conditions for germination and growth. The trial plants were treated at the early leaf stage (BBCH10-BBCH12). In the course of this, the inventive compounds of the general formula (D formulated in the form of wettable powders (WP) were sprayed onto the above-ground parts of the plants as an aqueous suspension with a water application rate corresponding to 800 l/ha with addition of wetting agent (e.g. 0.2% agrotin) in the specified dose. This was followed by the application of the herbicide. For this purpose, mesosulfuron-methyl, formulated in the form of water-dispersible granules (WG), was sprayed onto the above-ground parts of the plants in the form of an aqueous dispersion with a water application rate corresponding to 800 l/ha with addition of wetting agent (e.g. 0.2% agrotin) in a dose of 20 g/ha. The dose of the herbicide was chosen here such that it causes visually apparent damage (min. 30%, max. 75%) compared to untreated crop plants at the evaluation time on a control group of crop plants without safener treatment that were included in the same trial. After application, the plants were cultivated under good growth conditions in a greenhouse. The damage was visually assessed 14-21 days after application. The damage effect was assessed visually on a scale of 0-100% by comparison with untreated control plants, and averaged over 2-3 repeats per treatment. Examples: • 0%=no noticeable effect compared to the untreated plant • 20%=the treated plant population has 20% damage compared to the untreated control population (e.g. growth height, leaf damage, etc.) • 100%=treated plants completely damaged/killed.

The subject of data set [2] is summer barley (HORVS; cv. Montoya). Put plainly: Absolute action: reduction of damage by mesosulfuron-methyl on summer barley, greenhouse post-emergence. The arrangement: key to Absolute reduction in damage (difference): difference in % damage (0-100% visual scale vs untreated control). As to the method:
as §1, with “2.2” for “2.1”, “Barley (HORVS)” for “Wheat (TRZAS)”, “(I)” for “(D”

For data set [3], the system named is summer wheat (TRZAS; cv. Triso). Briefly: Relative action (efficacy code): reduction of damage by mesosulfuron-methyl on summer wheat. The arrangement: key: 0: no reduction in damage (appearance corresponding to the herbicide control); 1: slight reduction in damage; 2: distinct reduction in damage; 3: significant reduction in damage; 4: complete reduction in damage (appearance corresponding to the untreated control). To be noted: visual, 9-13 days after application. The method, then: 2.3 Relative Action of Selected Compounds of the Invention Using the Example of Reduction of Damage by Mesosulfuron-Methyl on Summer Wheat (TRZAS) The seeds of the crop plants to be treated are laid out in sandy loam in plastic pots (diameter μ4 cm), covered with soil and grown in a greenhouse under good conditions for germination and growth. The trial plants were treated at the early leaf stage (BBCH10-BBCH12). In the course of this, the inventive compounds of the general formula (I) formulated in the form of wettable powders (WP) were sprayed onto the above-ground parts of the plants as an aqueous suspension with a water application rate corresponding to 800 l/ha with addition of wetting agent (e.g. 0.2% Genapol-LRO or 0.2% Mero) in the specified dose. This was followed by the application of the herbicide. For this purpose, mesosulfuron-methyl, formulated in the form of water-dispersible granules (WG), was sprayed onto the above-ground parts of the plants in the form of an aqueous dispersion with a water application rate corresponding to 800 l/ha with addition of wetting agent (e.g. 0.2% Genapol-LRO or 1 l/ha Biopower) in a dose of 40-60 g/ha. The dose of the herbicide was chosen here such that it causes visually apparent damage (min. 30%, max. 75%) compared to untreated crop plants at the evaluation time on a control group of crop plants without safener treatment that were included in the same trial. After application, the plants were cultivated under good growth conditions in a greenhouse. 9-13 days after application, the efficacy of the test compounds was assessed visually. For this purpose, the appearance of the plants treated with the test compound and herbicide was compared to the corresponding herbicide controls (without safener; with clearly visible damage) and the untreated controls (without damage). The damage-reducing effect of the test compounds was expressed here in graded efficacy codes according to the following scheme: • 0: no reduction in damage (appearance corresponding to the herbicide control) • 1: slight reduction in damage • 2: distinct reduction in damage • 3: significant reduction in damage • 4: complete reduction in damage (appearance corresponding to the untreated control) The trials show clear efficacy of the inventive compounds selected by way of example with regard to the reduction in damage to the summer wheat crop plant (TRZAS; cv. Triso) caused by the herbicide mesosulfuron-methyl: […]

Where [4] appears, read: safener 125 g/ha + mesosulfuron-methyl 20 g/ha.
Setting [5] is: safener 125 g/ha + mesosulfuron-methyl 20 g/ha, visual, 14-21 days after application.
[6] abbreviates: safener 500 g/ha + mesosulfuron-methyl 20 g/ha.
[7] abbreviates: safener 500 g/ha + mesosulfuron-methyl 20 g/ha, visual, 14-21 days after application.
Setting [8] is: safener 100 g/ha + mesosulfuron-methyl 40-60 g/ha.
Setting [9] is: safener 500 g/ha + mesosulfuron-methyl 40-60 g/ha.
Setting [10] is: mesosulfuron-methyl 20 g/ha alone (no safener), visual, 14-21 days after application, scale 0-100%.

“And” between values parts separate entries of the source, which are not always exact repeats. Equal entries are not always repeated.

Take `O=C(O)COc1cc(-c2ccccc2)n(-c2ccc(Cl)cc2)n1` [I.3-7]: the “Absolute reduction in damage (difference)” value in data set [1] (setting [4]) is 26. In addition, the “Herbicide damage with compound of the formula (I)” value (from here on “Herbicide damage with compound”) in data set [1] (setting [5]) is recorded as 37%.

As to `COc1ccccc1-n1nc(OCC(=O)O)cc1-c1ccccc1` [I.3-20], in data set [1] (setting [6]), the “Absolute reduction in damage (difference)” value is 36. Moreover, in data set [1] (setting [7]), the “Herbicide damage with compound” value is listed as 17%.

For `CCOC(=O)COc1cc(-c2ccc(F)cc2)n(-c2ccccc2OC)n1` [I.11-20], the “Absolute reduction in damage (difference)” value in data set [1] (setting [4]) and in data set [1] (setting [6]) was 46 each time. In addition, the “Herbicide damage with compound” value in data set [1] (setting [5]) and in data set [1] (setting [7]) was 7% each time.

For `CCOC(=O)COc1cc(-c2ccc(F)cc2)n(-c2ccc(F)cc2F)n1` [I.11-38], the “Absolute reduction in damage (difference)” value was determined as 23 in data set [2] (setting [4]), 33 in data set [2] (setting [6]), 43 in data set [1] (setting [4]) and 43 in data set [1] (setting [6]). Moreover, the “Herbicide damage with compound” value came to 37% in data set [2] (setting [5]), 27% in data set [2] (setting [7]), 10% in data set [1] (setting [5]) and 10% in data set [1] (setting [7]).

In the case of `O=C(O)COc1cc(-c2ccc(F)cc2)n(-c2ccc(F)cc2)n1` [I.12-4], the “Absolute reduction in damage (difference)” value in data set [2] (setting [6]) is listed as 27; in data set [1] (setting [6]), 46. Moreover, the “Herbicide damage with compound” value is on record as 33% in data set [2] (setting [7]) and 7% in data set [1] (setting [7]).

As for `CCOC(=O)COc1cc(-c2ccc(Cl)cc2)n(-c2ccc(Cl)cc2F)n1` [I.20-49], the “Efficacy of the safener (efficacy code)” value in data set [3] (setting [8]) and in data set [3] (setting [9]) was 3 each time.

Turning to `COc1ccccc1-n1nc(OCC(=O)O)cc1-c1ccc(Cl)cc1` [I.21-20], the “Absolute reduction in damage (difference)” value in data set [1] (setting [4]) was 30; in data set [1] (setting [6]), 36. For the same compound, the “Herbicide damage with compound” value in data set [1] (setting [5]) is reported as 23%; in data set [1] (setting [7]), 17%.

`O=C(O)COc1cc(-c2ccc(Cl)cc2)n(-c2ccc(F)cc2F)n1` [I.21-38]: the “Absolute reduction in damage (difference)” value in data set [2] (setting [4]) is reported as 33; in data set [2] (setting [6]) it was 33; in data set [1] (setting [4]), 46; in data set [1] (setting [6]) it was 50. Besides, the “Herbicide damage with compound” value was found to be 27% in data set [2] (setting [5]), 27% in data set [2] (setting [7]), 7% in data set [1] (setting [5]) and 3% in data set [1] (setting [7]).

As to `CCOC(=O)COc1cc(-c2ccc(F)cc2F)n(-c2ccccc2)n1` [I.41-1], in data set [1] (setting [4]), the “Absolute reduction in damage (difference)” value is listed as 53. For the same compound, in data set [1] (setting [5]), the “Herbicide damage with compound” value came to 0%.

As to `CCOC(=O)COc1cc(-c2ccc(F)cc2F)n(-c2ccc(F)cc2)n1` [I.41-4], the “Absolute reduction in damage (difference)” value is listed as 23 in data set [2] (setting [4]) and 40 in data set [1] (setting [4]). Besides, the entries for the “Herbicide damage with compound” value in data set [2] (setting [5]) and in data set [1] (setting [5]) were 37% and 13%, respectively.

For the compound `CCOC(=O)COc1cc(-c2ccc(F)cc2F)n(-c2ccccc2OC)n1` [I.41-20], the “Absolute reduction in damage (difference)” value in data set [1] (setting [4]) came to 36; in data set [1] (setting [6]) it was 43. The “Herbicide damage with compound” value stood at 17% in data set [1] (setting [5]) and 10% in data set [1] (setting [7]).

On to `CCOC(=O)COc1cc(-c2ccc(F)cc2F)n(-c2ccc(F)cc2F)n1` [I.41-38], for which the “Absolute reduction in damage (difference)” value in data set [2] (setting [6]) was determined as 33; in data set [1] (setting [6]), 40. Also, the “Herbicide damage with compound” value in data set [2] (setting [7]) was determined as 27%; in data set [1] (setting [7]), 13%.

In the case of `COc1ccccc1-n1nc(OCC(=O)O)cc1-c1ccc(F)cc1F` [I.42-20], the “Absolute reduction in damage (difference)” value in data set [1] (setting [4]) is recorded as 40. Also, the “Herbicide damage with compound” value in data set [1] (setting [5]) is given as 13%.

As for `O=C(O)COc1cc(-c2ccc(F)cc2F)n(-c2ccc(F)cc2F)n1` [I.42-38], the “Absolute reduction in damage (difference)” value was determined as 23 in data set [2] (setting [4]) and 33 in data set [1] (setting [4]). Also, the “Herbicide damage with compound” value was found to be 37% in data set [2] (setting [5]) and 20% in data set [1] (setting [5]).

As for `CCOC(=O)COc1cc(-c2ccc(Cl)cc2F)n(-c2ccc(Cl)cc2)n1` [I.47-7], the “Efficacy of the safener (efficacy code)” value in data set [3] (setting [8]) and in data set [3] (setting [9]) was 2 throughout.

Consider `O=C(O)COc1cc(-c2ccc(Cl)cc2F)n(-c2ccc(F)cc2F)n1` [I.48-38], for which the “Efficacy of the safener (efficacy code)” value in data set [3] (setting [8]) and in data set [3] (setting [9]) was 2 each time.

For `COC(=O)c1ccc(CNS(C)(=O)=O)cc1S(=O)(=O)NC(=O)Nc1nc(OC)cc(OC)n1` [mesosulfuron-methyl, reference compound], the “Herbicide damage without compound of the formula (I)” value in data set [2] (setting [10]) was 60%; in data set [1] (setting [10]) it was 53% and 63%.

The values above are taken from patent US20230389542A1, “USE OF [(1,5-DIPHENYL-1H-PYRAZOL-3-YL)OXY] ACETIC ACID DERIVATIVES AND THEIR SALTS AND COMPOSITIONS CONTAINING THEM, FOR REDUCING PHYTOTOXIC EFFECTS OF AGROCHEMICALS, IN PARTICULAR OF HERBICIDES, IN USEFUL PLANTS AND CROP PLANTS” (BAYER AKTIENGESELLSCHAFT, priority 2020, published 2023).
